Data taken from the supplement of paper PMC10307832.

Columns and labels:
Experiment in all cases: relative viability (nuclei count vs DMSO), 5 days (fraction); higher = more cells survive
[1] = compound: C1=CC2=NC=CN=C2C=C1/C=C/3\C(=O)NC(=O)S3 + C[C@]1(O)C[C@@H](c2nc(-c3ccc4ccc(-c5ccccc5)nc4c3)c3c(N)nccn32)C1 [Linsitinib] (partner 1 µM)
Procedure, shortened: (§1)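 One day after seeding in 1536-well plates, lung cancer cell lines were dosed by pin tool. Dosing was either single-drug or a fixed anchor-drug dose plus five library-drug doses (not always all listed) in √10 steps. After 5 days, nuclei were stained in one fix-and-stain step and counted on 4× images, and relative viability is the nuclei count of treated wells over that of vehicle wells, given as the median of duplicate plates.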

[2] = compound: C1=CC2=NC=CN=C2C=C1/C=C/3\C(=O)NC(=O)S3 + C[C@@H](Oc1cc(-c2cnn(C3CCNCC3)c2)cnc1N)c1c(Cl)ccc(F)c1Cl [Crizotinib] (partner 1 µM)
Procedure, shortened: as §1

BGJ398 + Pictilisib = compound: CCN1CCN(c2ccc(Nc3cc(N(C)C(=O)Nc4c(Cl)c(OC)cc(OC)c4Cl)ncn3)cc2)CC1 [BGJ398] + CS(=O)(=O)N1CCN(Cc2cc3nc(-c4cccc5[nH]ncc45)nc(N4CCOCC4)c3s2)CC1 [Pictilisib] (partner 1 µM)
Procedure, shortened: as §1

[3] = compound: C1=CC2=NC=CN=C2C=C1/C=C/3\C(=O)NC(=O)S3 + COc1cc2c(Oc3ccc(NC(=O)C4(C(=O)Nc5ccc(F)cc5)CC4)cc3F)ccnc2cc1OCCCN1CCOCC1 [Foretinib] (partner 0.25 µM)
Procedure, shortened: as §1

Row | Cell Line | relative viability ([1]; first compound 0.02 µM) | relative viability ([1]; first compound 0.06325 µM) | relative viability ([1]; first compound 0.2 µM) | relative viability ([1]; first compound 0.6325 µM) | relative viability ([1]; first compound 2 µM) | relative viability ([2]; first compound 0.02 µM) | relative viability ([2]; first compound 0.06325 µM) | relative viability ([2]; first compound 0.2 µM) | relative viability ([2]; first compound 0.6325 µM) | relative viability ([2]; first compound 2 µM) | relative viability (BGJ398 + Pictilisib; first compound 0.01 µM) | relative viability (BGJ398 + Pictilisib; first compound 0.03162 µM) | relative viability (BGJ398 + Pictilisib; first compound 0.1 µM) | relative viability (BGJ398 + Pictilisib; first compound 0.3162 µM) | relative viability (BGJ398 + Pictilisib; first compound 1 µM) | relative viability ([3]; first compound 0.02 µM) | relative viability ([3]; first compound 0.06325 µM) | relative viability ([3]; first compound 0.2 µM) | relative viability ([3]; first compound 0.6325 µM) | relative viability ([3]; first compound 2 µM)
1 | HCC-15 | 0.824 | 0.868 | 0.912 | 0.861 | 0.885 | 0.822 | 0.897 | 0.817 | 0.747 | 0.716 | 0.67 | 0.703 | 0.79 | 0.805 | 0.723 | 0.981 | 1.02 | 1.01 | 1.03 | 0.928
2 | A-427 | 1.07 | 1.16 | 1.12 | 1.14 | 1.07 | 0.848 | 0.792 | 0.939 | 0.866 | 0.843 | 0.622 | 0.644 | 0.506 | 0.334 | 0.158 | 1.08 | 1.11 | 1.13 | 1.01 | 1.06
3 | NCI-H2228 | 0.622 | 0.447 | 1.08 | 0.55 | 0.609 | 0.407 | 0.433 | 0.587 | 0.294 | 0.428 | 0.342 | 0.56 | 0.531 | 0.484 | 0.365 | 0.834 | 1.05 | 0.961 | 0.841 | 0.749
4 | NCI-H1734 | 0.856 |  | 0.853 | 0.789 | 0.841 | 0.665 |  | 0.808 | 0.637 | 0.611 | 0.421 | 0.493 | 0.451 | 0.407 | 0.476 | 0.891 | 0.674 | 0.808 | 0.844 | 0.681
5 | PC-14 | 0.88 | 0.952 | 0.994 | 1.02 | 0.993 | 0.821 | 0.954 | 0.869 | 0.972 | 0.864 | 0.696 | 0.346 | 0.92 | 0.669 | 0.866 | 0.934 | 1.07 | 0.961 | 1.01 | 0.893
6 | NCI-H1915 | 1.1 | 1.18 | 1.11 | 1.12 | 1.08 | 0.861 | 0.934 | 0.918 | 0.859 | 0.894 | 0.913 | 0.904 | 0.906 | 1.03 | 0.97 | 1.11 | 1.12 | 1.15 | 1.09 | 1.04
7 | NCI-H1666 | 0.789 | 0.848 | 0.807 | 0.843 | 0.911 | 0.992 | 1.02 | 1.05 | 1.01 | 1.07 | 0.511 | 0.461 | 0.536 | 0.374 | 0.329 | 1.03 | 0.879 | 0.986 | 0.909 | 0.932
8 | HCC-366 | 0.636 | 0.832 | 0.734 | 0.501 | 0.638 | 0.441 | 0.306 | 0.605 | 0.441 | 0.409 | 0.0862 | 0.146 | 0.137 | 0.277 | 0.0758 | 0.916 |  | 0.863 | 0.901 | 0.985
9 | SK-MES-1 | 1.04 | 1.25 | 1.09 | 0.95 | 1.04 | 0.965 | 1.11 | 1.02 | 0.981 | 1 | 0.401 | 0.415 | 0.431 | 0.383 | 0.335 | 0.875 | 1.05 | 0.976 | 0.804 | 0.669
10 | SW 1573 | 0.78 | 0.825 | 0.943 | 0.847 | 0.714 | 0.729 | 0.816 | 0.825 | 0.831 | 0.742 | 0.485 | 0.486 | 0.495 | 0.438 | 0.611 | 0.893 | 1.22 | 0.911 | 0.804 | 0.487
11 | NCI-H661 | 0.59 | 0.501 | 0.606 | 0.583 | 0.56 | 0.87 | 0.809 | 0.945 | 1 | 0.987 | 0.361 | 0.46 | 0.388 | 0.382 | 0.348 | 1 | 1.05 | 1.07 | 0.957 | 1.08
12 | PC-3 [JPC-3] | 0.889 | 1.01 | 0.879 | 0.923 | 0.963 | 0.954 | 1.01 | 0.944 | 1.01 | 1.01 | 0.716 |  | 0.708 | 0.492 | 0.689 | 0.997 | 1.14 | 1.02 | 1 | 1.06
13 | NCI-H1623 |  |  |  |  |  |  |  |  |  |  |  |  |  |  |  | 0.756 | 0.855 | 0.953 | 0.82 | 0.799
14 | Calu-6 | 0.946 | 1.13 | 1.05 | 0.899 | 0.876 | 0.781 | 0.744 | 0.758 | 0.704 | 0.781 | 0.848 | 0.987 | 0.935 | 0.898 | 0.991 | 0.848 | 0.866 | 0.843 | 0.864 | 0.928
